Laboratory results from patent US12358896B2, “LRRK2 inhibitors and methods of making and using thereof” (DENALI THERAPEUTICS INC., priority 2019, dated 2025).

Legend:
[1] = target: T1, FLAG-tagged human LRRK2 with G2019S mutation (Homo sapiens, UniProt Q5S007, G2019S); experiment: Inhibition of pSer935 in HEK293 cells with expressed G2019S LRRK2 (Biological Example 4); format: cell-based; details: transfected 293T cells, 90 minutes compound treatment, MSD readout; read-out: HEK293T LRRK2 G2019S pS935
T1 construct: expressed in transfected cells; host or cells: HEK293 / 293T cells, transient transfection with pCMV-FLAG-G2019S
T1 sequence (Q5S007 whole entry G2019S): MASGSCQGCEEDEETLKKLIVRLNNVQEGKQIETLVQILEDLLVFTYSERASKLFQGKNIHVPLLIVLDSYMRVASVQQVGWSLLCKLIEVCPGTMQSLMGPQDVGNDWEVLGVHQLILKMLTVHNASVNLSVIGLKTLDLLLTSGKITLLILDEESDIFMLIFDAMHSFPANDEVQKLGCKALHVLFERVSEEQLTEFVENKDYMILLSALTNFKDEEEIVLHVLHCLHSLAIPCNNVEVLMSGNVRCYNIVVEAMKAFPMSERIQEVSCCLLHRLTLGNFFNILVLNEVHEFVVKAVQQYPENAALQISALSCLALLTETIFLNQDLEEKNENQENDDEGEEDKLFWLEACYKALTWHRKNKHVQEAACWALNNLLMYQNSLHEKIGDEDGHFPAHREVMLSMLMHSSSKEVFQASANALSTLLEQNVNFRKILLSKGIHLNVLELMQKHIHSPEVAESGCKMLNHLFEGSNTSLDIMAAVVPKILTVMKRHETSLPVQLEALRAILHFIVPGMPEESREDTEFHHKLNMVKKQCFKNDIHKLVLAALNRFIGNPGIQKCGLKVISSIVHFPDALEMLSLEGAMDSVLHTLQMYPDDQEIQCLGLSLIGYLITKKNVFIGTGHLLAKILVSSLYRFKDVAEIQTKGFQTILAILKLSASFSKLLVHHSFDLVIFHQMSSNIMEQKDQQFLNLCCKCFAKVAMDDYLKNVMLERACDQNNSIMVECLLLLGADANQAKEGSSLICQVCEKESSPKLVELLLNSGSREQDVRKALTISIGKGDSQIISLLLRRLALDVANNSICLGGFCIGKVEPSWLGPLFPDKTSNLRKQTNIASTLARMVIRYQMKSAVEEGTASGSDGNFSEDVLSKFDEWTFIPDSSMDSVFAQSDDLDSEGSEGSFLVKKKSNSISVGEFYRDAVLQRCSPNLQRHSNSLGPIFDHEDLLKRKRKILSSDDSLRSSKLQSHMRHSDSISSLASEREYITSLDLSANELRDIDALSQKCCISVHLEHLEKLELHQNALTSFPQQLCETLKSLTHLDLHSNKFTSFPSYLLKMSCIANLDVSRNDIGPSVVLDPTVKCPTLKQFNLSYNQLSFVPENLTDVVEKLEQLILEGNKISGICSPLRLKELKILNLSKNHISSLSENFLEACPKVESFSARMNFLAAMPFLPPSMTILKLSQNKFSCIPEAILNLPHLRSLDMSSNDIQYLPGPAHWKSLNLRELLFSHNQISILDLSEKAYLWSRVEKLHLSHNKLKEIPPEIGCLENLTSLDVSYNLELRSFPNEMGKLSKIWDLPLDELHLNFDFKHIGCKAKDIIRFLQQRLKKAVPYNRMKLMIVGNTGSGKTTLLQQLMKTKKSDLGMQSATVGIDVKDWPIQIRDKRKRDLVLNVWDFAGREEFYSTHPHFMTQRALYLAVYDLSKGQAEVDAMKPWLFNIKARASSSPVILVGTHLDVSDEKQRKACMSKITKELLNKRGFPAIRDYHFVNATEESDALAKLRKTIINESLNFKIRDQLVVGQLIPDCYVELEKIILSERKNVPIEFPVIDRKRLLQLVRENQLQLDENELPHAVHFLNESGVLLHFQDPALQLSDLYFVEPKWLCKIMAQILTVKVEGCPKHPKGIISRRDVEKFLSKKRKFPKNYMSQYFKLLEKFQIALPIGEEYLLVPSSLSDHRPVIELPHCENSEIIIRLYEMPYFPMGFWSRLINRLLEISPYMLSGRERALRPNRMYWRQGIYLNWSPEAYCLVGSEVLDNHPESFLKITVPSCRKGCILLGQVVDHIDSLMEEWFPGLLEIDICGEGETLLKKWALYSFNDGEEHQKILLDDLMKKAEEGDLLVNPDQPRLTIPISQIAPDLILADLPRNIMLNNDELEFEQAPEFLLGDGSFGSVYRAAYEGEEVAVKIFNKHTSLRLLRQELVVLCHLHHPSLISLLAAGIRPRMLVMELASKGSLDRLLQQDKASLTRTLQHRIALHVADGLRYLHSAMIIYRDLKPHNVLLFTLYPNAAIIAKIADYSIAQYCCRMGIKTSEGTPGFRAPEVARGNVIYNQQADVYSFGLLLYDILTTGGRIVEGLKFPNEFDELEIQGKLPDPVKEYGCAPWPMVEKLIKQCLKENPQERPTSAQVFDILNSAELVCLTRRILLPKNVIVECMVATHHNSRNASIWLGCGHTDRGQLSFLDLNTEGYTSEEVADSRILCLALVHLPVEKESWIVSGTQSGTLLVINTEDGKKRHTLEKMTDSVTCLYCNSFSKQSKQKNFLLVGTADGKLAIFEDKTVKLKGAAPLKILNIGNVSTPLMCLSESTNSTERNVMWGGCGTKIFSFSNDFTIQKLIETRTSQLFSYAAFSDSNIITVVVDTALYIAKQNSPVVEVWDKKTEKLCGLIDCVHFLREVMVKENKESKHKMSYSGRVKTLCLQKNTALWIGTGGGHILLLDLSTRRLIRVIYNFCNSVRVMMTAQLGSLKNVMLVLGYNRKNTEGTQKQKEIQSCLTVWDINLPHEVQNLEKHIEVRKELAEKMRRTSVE
Method: In this assay, inhibition of phosphorylation of LRRK2 at residue serine 935 (pS935) by test compound was determined in HEK293 cells.
HEK293 cells were first transiently transfected with a plasmid harboring FLAG-tagged human LRRK2 cDNA with G2019S mutation (p.G2019S) under the control of CMV promoter for robust overexpression. The levels of phosphorylated Ser935 in G2019S expressing cells with or without compound treatment were measured by MSD using an anti-FLAG capture antibody and a phosho-specific anti-LRRK2 pS935 monoclonal detection antibody. The IC50 was determined by fitting a 10-point dose response data in duplicate with four parameter non-linear regression curve.
(Day 1) 293T cell seeding: 293T cells were seeded (1.4×10^6/well) into each well of a 6-well plate. After two days in culture, the cell number can grow into 5×10^6/well, so N+1 wells were seeded (enough for N 96 well assay plates).
(Day 2) 293T cell transfection: 5 μL of pCMV-FLAG-G2019S or pCMV-FLAG-WT LRRK2 (0.5 μg/μL) was added into 145 μL of DMEM medium, and mixed thoroughly by pipette up and down several times. 15 μL of SuperFect Transfection Reagent was added into samples, mixed thoroughly by pipetting up and down several times, and allowed to equilibrate at room temperature for 5-10 minutes. 0.5 mL of pre-warmed cell culture medium was added into samples, and mixed thoroughly by pipetting up and down several times. 650 μL of the mixture was added dropwise into each well of the 6 well plate, the plate was swirled to mix thoroughly, and incubated in a 37° C. incubator with a humidified atmosphere of 5% CO2 for 20-24 hours.
(Day 3) 293T cells seed into 96 well plates: Cells were harvested and resuspended in cell culture medium at 0.96×10^6 cells/mL density. 50 μL/well cells were plated onto 96-well cell culture plate (48,000 cells/well), and the plates were incubated in a 37° C. incubator with a humidified atmosphere of 5% CO2 for 20-24 hours.
(Day 4) Inhibitor Treatment and Cell Lysis: The compound destination plates were thawed at room temperature and centrifuged at 2000 rpm. 55 μL cell culture medium was added into compound destination plate, and the plate was warmed at 37° C.
50 μL of cell culture medium containing compounds was transferred into cell culture plate. Plates were incubated in a 37° C. incubator with a humidified atmosphere of 5% CO2 for 90 minutes, after which all of compound-containing medium was completely aspirated manually with 300 μL pipette. 100 μL/well of Lysis Buffer was added and the plates sealed, shaken at 4° C. for 30 minutes, and stored at −20° C. until usage.
(Day 5) MSD procedure: 2 μg/25 μL/well of FLAG antibody diluted in PBS was added into the MSD plate, incubated for two hours at room temperature or overnight at 4° C. (in Day 4). 50 μL (3.9 μg/μL) of FLAG antibody plus 2.5 mL PBS, per 96 well plate, or 50 μL (3.9 μg/μL) anti-FLAG antibody plus 5 mL PBS per 384 well plate. The plates were centrifuged at 1000 rpm for 10 seconds and shaken with a plate shaker for 10 seconds.
Anti-FLAG antibody was discarded, and the wells were washed using multidrop, low speed, two times with 300 μL/well of wash buffer for a 96 well plate or three times with 70 μL/well of wash buffer for a 384 well plate. 50 μL/well of block buffer for a 96 well plate, or 25 μL/well of block buffer for a 384 well plate, was added and the plates were incubated for two hours at room temperature. The Block buffer was then discarded and the wells washed two times using multidrop, low speed, with 300 μL/well of wash buffer for a 96 well plate, or three times with 70 μL/well of wash buffer for a 384 well plate.
25 μL of cell lysate was transferred into a 96 well MSD plate, or 12.5 μL of cell lysate into 384 well MSD plate, and the plates were incubated for one hour at room temperature.
Note: The cell lysate should be thawed one hour prior to this step, the plate centrifuged at 1000 rpm for one minute, shaken for 30 seconds, and then unsealed for lysate transfer. […]

[2] = target: LRRK2 G2019S enzyme (Homo sapiens, UniProt Q5S007, G2019S); experiment: LRRK2 G2019S TR-FRET biochemical assay (Biological Example 1); details: 134 μM ATP, 5 nM LRRK2, LRRKtide substrate
Sequence of LRRK2 G2019S enzyme (Q5S007 whole entry G2019S): as above
Method: • LRRK2 G2019S enzyme • Substrate (LRRKtide) • ATP • TR-FRET dilution buffer • pLRRKtide antibody • 384-well assay plate • DMSO Enzyme Reaction Conditions • 50 mM Tris pH 7.5, 10 mM MgCl2, 1 mM EGTA, 0.01% Brij-35, 2 mM DTT • 5 nM LRRK2 • 134 μM ATP • 60 minute reaction time • 23° C. reaction temperature • 10 μL total reaction volume Detection Reaction Conditions • 1×TR-FRET dilution buffer • 10 mM EDTA • 2 nM antibody • 23° C. reaction temperature • 10 μL total reaction volume
Compounds are prepared by initially diluting to 1 mM with DMSO. 35 μL of reference compound solution, 35 μL of test compound solution, and 35 μL HPE are successively added to the source plate (384-well assay plate, Labcyte). The plates are centrifuged at 2500 rpm for 1 minute and sealed in foil. POD is used to perform a 3.162 fold serial dilution and 100 nL of reference compound solution, test compound solution, HPE and ZPE are transferred to assay plates. The assay plate is centrifuged at 2500 rpm for 1 minute, and sealed with foil.
To perform the enzyme reaction, 5 μL of LRRKtide substrate and kinase mixture in assay buffer is added to all wells of the assay plate. The plate is centrifuged to concentrate the mixture at the bottom of the wells. The assay plate is incubated at 23° C. for 20 minutes. Following incubation, 5 μL of 2×ATP in assay buffer is added to each well, and plates are centrifuged to concentrate the mixture at the bottom of the wells. The plate is incubated at 23° C. for 60 minutes.
To perform the detection of the reaction, EDTA completely mixed in TR-FRET dilution buffer is added to antibody reagent. 10 μL of detection reagent is added to all wells of each well of the assay plate and the plate is centrifuged to concentrate the mixture at the bottom of the wells. The plate is then incubated at 23° C. for 60 minutes. Plates are read on Perkin Elmer Envision 2104 instrument in TR-FRET mode using a 340 nm excitation filter, 520 nm fluorescence emission filter, and 490 or 495 nm terbium emission filter.

[3] = Metabolic stability in human liver microsomes (Biological Example 2); format: in vitro ADME; details: hepatic clearance (CLhep) scaled from human liver microsomes, 1 μM, well-stirred model
Method: Metabolic stability of select compounds was evaluated in human liver microsomes (from Corning or XenoTech, LLC) using a 96-well plate assay format. Compounds were incubated at 37° C. at 1 μM final concentration in the microsomal matrix (0.5 mg/mL total protein) in the presence or absence of NADPH cofactor. An NADPH regenerating system, comprised of NADP, MgCl2, isocitric acid, and isocitrate dehydrogenase, was used in the assay. Enzymatic reactions were conducted for 0, 5, 10, 20, 30, or 60 min before termination by addition of acetonitrile containing tolbutamide and labetalol internal standards (100 ng/mL). After shaking for 10 min, plates were subjected to centrifugation (4000 rpm at 4° C.) for 20 min and supernatants mixed 1:3 with HPLC grade water. Samples were analyzed by LC-MS/MS using appropriate MRM transitions for each analyte and internal standard (IS). Analyte/IS peak area ratios were used to determine percent compound remaining at each time point. Intrinsic clearance (Clint; expressed as mL·min^−1·mg^−1) was calculated from the first order elimination constant (k, min^−1) of test article decay and the volume of the incubation. These values were scaled to intrinsic organ clearance (Clint) using human specific scaling factors (48.8 mg microsomal protein per g liver; 25.7 g liver per kg body weight). Organ Clint was subsequently converted to hepatic clearance, HLM, (CLhep, mL·min-1·kg-1) using the well-stirred model of hepatic elimination, where Qh is human hepatic blood flow (20.7 mL·min-1·kg-1).
CLhep is the projected human clearance in the liver based on the above in vitro assay. A lower value is indicative of less compound being removed by the liver.

| Compound | IC50 [1] [nM] | IC50 [2] [nM] | HLM Avg [3] [mL/min/kg] |
| --- | --- | --- | --- |
| Cc1nn(C2C[C@@]2(C)C(N)=O)cc1Nc1ncc(C(F)(F)F)c(NC2(C)CC2)n1 (single isomer, unassigned) [Example 1, (1,2-cis)-1-methyl-2-(3-methyl-4-((4-((1-methylcyclopropyl)amino)-5-(trifluoromethyl)pyrimidin-2-yl)amino)-1H-pyrazol-1-yl)cyclopropanecarboxamide] | 1.79 | 1.03 | 6.4 |
| CNc1nc(Nc2cn([C@@H]3C[C@@H]3C(N)=O)nc2C2CC2)ncc1C(F)(F)F (single isomer, unassigned) [Example 2, (1,2-cis)-2-(3-cyclopropyl-4-((4-(methylamino)-5-(trifluoromethyl)pyrimidin-2-yl)amino)-1H-pyrazol-1-yl)cyclopropanecarboxamide] | 3.06 | 2.8 | – |
| CCNc1nc(Nc2cn(C3C[C@@]3(C)C(N)=O)nc2C)ncc1Br (single isomer, unassigned) [Example 3, (1,2-cis)-2-(4-((5-bromo-4-(ethylamino)pyrimidin-2-yl)amino)-3-methyl-1H-pyrazol-1-yl)-1-methylcyclopropanecarboxamide] | 10.5 | 2.28 | – |
| Cc1nn(C2C[C@]2(C)C(N)=O)cc1Nc1ncc(C(F)(F)F)c(NC2(C)CC2)n1 (single isomer, unassigned) [Example 4, (1,2-cis)-1-methyl-2-(3-methyl-4-((4-((1-methylcyclopropyl)amino)-5-(trifluoromethyl)pyrimidin-2-yl)amino)-1H-pyrazol-1-yl)cyclopropanecarboxamide] | 3 | 1.49 | 8.9 |
| CCNc1nc(Nc2cn([C@@H]3C[C@]3(C)C(N)=O)nc2C2CC2)ncc1C(F)(F)F (single isomer, unassigned) [Example 5, (1,2-cis)-2-(3-cyclopropyl-4-((4-(ethylamino)-5-(trifluoromethyl)pyrimidin-2-yl)amino)-1H-pyrazol-1-yl)-1-methylcyclopropanecarboxamide] | 5.12 | 0.92 | 11 |
| Cc1nn(C2C[C@]2(C)C(N)=O)cc1Nc1ncc(C(F)(F)F)c(NC2CC2)n1 (single isomer, unassigned) [Example 6, (1,2-cis)-2-(4-((4-(cyclopropylamino)-5-(trifluoromethyl)pyrimidin-2-yl)amino)-3-methyl-1H-pyrazol-1-yl)-1-methylcyclopropanecarboxamide] | 5.79 | 1.23 | – |
| CCNc1nc(Nc2cn([C@@H]3C[C@@H]3C(N)=O)nc2C2CC2)ncc1C(F)(F)F (single isomer, unassigned) [Example 8, (1,2-cis)-2-(3-cyclopropyl-4-((4-(ethylamino)-5-(trifluoromethyl)pyrimidin-2-yl)amino)-1H-pyrazol-1-yl)cyclopropanecarboxamide] | 4.94 | 1.11 | – |
